Experimental findings from US6949542B2, “Dihydro-benzo[b][1,4]diazepin-2-one derivatives” (Hoffman-La Roche Inc., priority 2002, dated 2005) are described below.

Broadly, the melting point is the temperature, or range, at which the solid turns liquid. `COc1ccc(-c2cccc(C3=Nc4cc(OCC(F)(F)F)c(C(F)(F)F)cc4NC(=O)C3)c2)cn1` [Example 170, 4-[3-(6-Methoxy-pyridin-3-yl)-phenyl]-7-(2,2,2-trifluoro-ethoxy)-8-trifluoromethyl-1,3-dihydro-benzo[b][1,4]diazepin-2-one] registered a melting point of 220 to 225 °C. Then `O=C1CC(c2cccc(-c3cccnc3)c2)=Nc2ccc(C#Cc3ccc(F)cc3)cc2N1` [Example 174, 8-(4-Fluoro-phenylethynyl)-4-(3-pyridin-3-yl-phenyl)-1,3-dihydro-benzo[b][1,4]diazepin-2-one], with 228 to 230 °C; and `O=C1CC(c2cccc(-c3cccnc3)c2)=Nc2ccc(C#Cc3ccccc3)cc2N1` [Example 175, 8-Phenylethynyl-4-(3-pyridin-3-yl-phenyl)-1,3-dihydro-benzo[b][1,4]diazepin-2-one], with 241 °C. The result for `O=C1CC(c2cccc(-c3ccc(C4CC4)nc3)c2)=Nc2cc(OCC(F)(F)F)ccc2N1` [Example 176, 4-[3-(6-Cyclopropyl-pyridin-3-yl)-phenyl]-7-(2,2,2-trifluoro-ethoxy)-1,3-dihydro-benzo[b][1,4]diazepin-2-one] reads 178 to 180 °C. Then `CC(C)c1ccc(-c2cccc(C3=Nc4ccc(C(F)(F)F)cc4NC(=O)C3)c2)cn1` [Example 177, 4-[3-(6-Isopropyl-pyridin-3-yl)-phenyl]-8-trifluoromethyl-1,3-dihydro-benzo[b][1,4]diazepin-2-one], with 194 °C. In the case of `CC(C)c1ccc(-c2cccc(C3=Nc4cc(OCC(F)(F)F)c(C(F)(F)F)cc4NC(=O)C3)c2)cn1` [Example 178, 4-[3-(6-Isopropyl-pyridin-3-yl)-phenyl]-7-(2,2,2-trifluoro-ethoxy)-8-trifluoromethyl-1,3-dihydro-benzo[b][1,4]diazepin-2-one], the melting point worked out at 197 °C. Then `Cc1cc2c(cc1Cl)NC(=O)CC(c1cccc(-c3ccc(C(C)C)nc3)c1)=N2` [Example 179, 8-Chloro-4-[3-(6-isopropyl-pyridin-3-yl)-phenyl]-7-methyl-1,3-dihydro-benzo[b][1,4]diazepin-2-one], with 190 °C. Then `Cc1cc2c(cc1C(F)(F)F)NC(=O)CC(c1cccc(-c3ccc(C(C)C)nc3)c1)=N2` [Example 180, 4-[3-(6-Isopropyl-pyridin-3-yl)-phenyl]-7-methyl-8-trifluoromethyl-1,3-dihydro-benzo[b][1,4]diazepin-2-one], with 199 °C; and `CCOc1cc2c(cc1Cl)NC(=O)CC(c1cccc(-c3cccnc3)c1)=N2` [Example 181, 8-Chloro-7-ethoxy-4-(3-pyridin-3-yl-phenyl)-1,3-dihydro-benzo[b][1,4]diazepin-2-one], with 210 °C; and `CCOc1cc2c(cc1Cl)NC(=O)CC(c1cccc(-c3ccnc(C)c3)c1)=N2` [Example 182, 8-Chloro-7-ethoxy-4-[3-(2-methyl-pyridin-4-yl)-phenyl]-1,3-dihydro-benzo[b][1,4]diazepin-2-one], with 185 °C.

With `O=C1CC(c2cccc(-c3cccnc3)c2)=Nc2cc(Cl)c(C(F)(F)F)cc2N1` [Example 183, 7-Chloro-4-(3-pyridin-3-yl-phenyl)-8-trifluoromethyl-1,3-dihydro-benzo[b][1,4]diazepin-2-one], the melting point was 226 to 227 °C.

Compound `O=C1CC(c2cccc(-c3cccnc3)c2)=Nc2ccc(OC(F)(F)F)cc2N1` [Example 185, 4-(3-Pyridin-3-yl-phenyl)-8-trifluoromethoxy-1,3-dihydro-benzo[b][1,4]diazepin-2-one] returned a melting point of 207 °C. Then `O=C1CC(c2cccc(-c3cccnc3)c2)=Nc2cc(N3CCCC3)c(C(F)(F)F)cc2N1` [Example 187, 4-(3-Pyridin-3-yl-phenyl)-7-pyrrolidin-1-yl-8-trifluoromethyl-1,3-dihydro-benzo[b][1,4]diazepin-2-one], with 219 to 221 °C; and `O=C1CC(c2cccc(-c3cccnc3)c2)=Nc2cc(N3CCOCC3)c(C(F)(F)F)cc2N1` [Example 188, 7-Morpholin-4-yl-4-(3-pyridin-3-yl-phenyl)-8-trifluoromethyl-1,3-dihydro-benzo[b][1,4]diazepin-2-one], with 198 to 201 °C; and `CCc1ccc(-c2cccc(C3=Nc4cc(C)c(Cl)cc4NC(=O)C3)c2)cn1` [Example 189, 8-Chloro-4-[3-(6-ethyl-pyridin-3-yl)-phenyl]-7-methyl-1,3-dihydro-benzo[b][1,4]diazepin-2-one], with 182 to 185 °C. `CCOc1cc2c(cc1C(F)(F)F)NC(=O)CC(c1cccc(-c3ccc(CC)nc3)c1)=N2` [Example 190, 7-Ethoxy-4-[3-(6-ethyl-pyridin-3-yl)-phenyl]-8-trifluoromethyl-1,3-dihydro-benzo[b][1,4]diazepin-2-one] registered a melting point of 218 to 219 °C. The result for `CCc1ccc(-c2cccc(C3=Nc4ccc(C(F)(F)F)cc4NC(=O)C3)c2)cn1` [Example 191, 4-[3-(6-Ethyl-pyridin-3-yl)-phenyl]-8-trifluoromethyl-1,3-dihydro-benzo[b][1,4]diazepin-2-one] reads 211 °C; that for `CCc1ccc(-c2cccc(C3=Nc4cc(OCC(F)(F)F)c(C(F)(F)F)cc4NC(=O)C3)c2)cn1` [Example 193, 4-[3-(6-Ethyl-pyridin-3-yl)-phenyl]-7-(2,2,2-trifluoro-ethoxy)-8-trifluoromethyl-1,3-dihydro-benzo[b][1,4]diazepin-2-one], 191 °C; that for `O=C1CC(c2cccc(-c3cccnc3)c2)=Nc2cc(OCC3CC3)c(C(F)(F)F)cc2N1` [Example 194, 7-Cyclopropylmethoxy-4-(3-pyridin-3-yl-phenyl)-8-trifluoromethyl-1,3-dihydro-benzo[b][1,4]diazepin-2-one], 197 °C. The result for `O=C1CC(c2cccc(-c3ccc(C4CC4)nc3)c2)=Nc2cc(OCC3CC3)c(C(F)(F)F)cc2N1` [Example 196, 7-Cyclopropylmethoxy-4-[3-(6-cyclopropyl-pyridin-3-yl)-phenyl]-8-trifluoromethyl-1,3-dihydro-benzo[b][1,4]diazepin-2-one] reads 223 °C; that for `Cc1cc2c(cc1C(F)(F)F)NC(=O)CC(c1cccc(-c3ccnc(C#N)c3)c1)=N2` [Example 199, 4-[3-(8-Methyl-4-oxo-7-trifluoromethyl-4,5-dihydro-3H-benzo[b][1,4]diazepin-2-yl)-phenyl]-pyridine-2-carbonitrile], 205 to 211 °C; that for `O=C1CC(c2cccc(-c3cccnc3)c2)=Nc2cc(OCC(F)(F)F)c(Cl)cc2N1` [Example 202, 8-Chloro-4-(3-pyridin-3-yl-phenyl)-7-(2,2,2-trifluoro-ethoxy)-1,3-dihydro-benzo[b][1,4]diazepin-2-one], 203 to 204 °C. Then `N#Cc1cc(-c2cccc(C3=Nc4cc(OCC(F)(F)F)c(Cl)cc4NC(=O)C3)c2)ccn1` [Example 203, 4-{3-[7-Chloro-4-oxo-8-(2,2,2-trifluoro-ethoxy)-4,5-dihydro-3H-benzo[b][1,4]diazepin-2-yl]-phenyl}-pyridine-2-carbonitrile], with 224 to 225 °C. As to `N#Cc1ccc(-c2cccc(C3=Nc4ccc(C(F)(F)F)cc4NC(=O)C3)c2)cn1` [Example 204, 5-[3-(4-Oxo-7-trifluoromethyl-4,5-dihydro-3H-benzo[b][1,4]diazepin-2-yl)-phenyl]-pyridine-2-carbonitrile], the melting point was 234 to 237 °C. The result for `O=C1CC(c2cccc(-c3cccnn3)c2)=Nc2ccc(C(F)(F)F)cc2N1` [Example 205, 4-(3-Pyridazin-3-yl-phenyl)-8-trifluoromethyl-1,3-dihydro-benzo[b][1,4]diazepin-2-one] reads 238 to 240 °C.

The compound `O=C1CC(c2cccc(-c3ccc(C4CC4)nc3)c2)=Nc2ccc(OC(F)(F)F)cc2N1` [Example 207, 4-[3-(6-Cyclopropyl-pyridin-3-yl)-phenyl]-8-trifluoromethoxy-1,3-dihydro-benzo[b][1,4]diazepin-2-one] registered a melting point of 190 to 191 °C. The result for `COCCOc1cc2c(cc1C(F)(F)F)NC(=O)CC(c1cccc(-c3cccnc3)c1)=N2` [Example 208, 7-(2-Methoxy-ethoxy)-4-(3-pyridin-3-yl-phenyl)-8-trifluoromethyl-1,3-dihydro-benzo[b][1,4]diazepin-2-one] reads 190 to 191 °C; that for `CCc1cc2c(cc1C(F)(F)F)NC(=O)CC(c1cccc(-c3ccnc(C#N)c3)c1)=N2` [Example 210, 4-[3-(8-Ethyl-4-oxo-7-trifluoromethyl-4,5-dihydro-3H-benzo[b][1,4]diazepin-2-yl)-phenyl]-pyridine-2-carbonitrile], 210 to 217 °C; that for `CCc1cc2c(cc1C(F)(F)F)NC(=O)CC(c1cccc(-c3cccnc3)c1)=N2` [Example 211, 7-Ethyl-4-(3-pyridin-3-yl-phenyl)-8-trifluoromethyl-1,3-dihydro-benzo[b][1,4]diazepin-2-one], 197 to 198 °C.

Turning to `COc1ccc(-c2cccc(C3=Nc4ccc(OC(F)(F)F)cc4NC(=O)C3)c2)cn1` [Example 212, 4-[3-(6-Methoxy-pyridin-3-yl)-phenyl]-8-trifluoromethoxy-1,3-dihydro-benzo[b][1,4]diazepin-2-one], the melting point worked out at 186 °C. Then `Cc1cc(-c2cccc(C3=Nc4ccc(OC(F)(F)F)cc4NC(=O)C3)c2)cc(C)n1` [Example 213, 4-[3-(2,6-Dimethyl-pyridin-4-yl)-phenyl]-8-trifluoromethoxy-1,3-dihydro-benzo[b][1,4]diazepin-2-one], with 190 to 193 °C; and `C=Cc1cc2c(cc1C(F)(F)F)NC(=O)CC(c1cccc(-c3cccnc3)c1)=N2` [Example 214, 4-(3-Pyridin-3-yl-phenyl)-8-trifluoromethyl-7-vinyl-1,3-dihydro-benzo[b][1,4]diazepin-2-one], with 208 to 209 °C. Compound `CCCOc1cc2c(cc1C(F)(F)F)NC(=O)CC(c1cccc(-c3cccnc3)c1)=N2` [Example 215, 7-Propoxy-4-(3-pyridin-3-yl-phenyl)-8-trifluoromethyl-1,3-dihydro-benzo[b][1,4]diazepin-2-one] returned a melting point of 219 to 221 °C.
